In the experiment the target is recombinant active human PAI-1 (Homo sapiens, UniProt P05121). In words: Inhibition of the activity of PAI-1 (fibrin clot formation and breakdown monitored by turbidity in microplate wells; fibrinolytic activity). The class given is biochemical. The note with it: in vitro, pH 7.4 phosphate buffer, clot absorbance two hours after fibrin formation, 2 nM PAI-1 solution, tissue plasminogen activator, fibrinogen, human thrombin, read-out: fibrinolytic activity IC50 (concentration of product that inhibits PAI-1 activity by 50%).
Sequence of recombinant active human PAI-1 (P05121 24-402): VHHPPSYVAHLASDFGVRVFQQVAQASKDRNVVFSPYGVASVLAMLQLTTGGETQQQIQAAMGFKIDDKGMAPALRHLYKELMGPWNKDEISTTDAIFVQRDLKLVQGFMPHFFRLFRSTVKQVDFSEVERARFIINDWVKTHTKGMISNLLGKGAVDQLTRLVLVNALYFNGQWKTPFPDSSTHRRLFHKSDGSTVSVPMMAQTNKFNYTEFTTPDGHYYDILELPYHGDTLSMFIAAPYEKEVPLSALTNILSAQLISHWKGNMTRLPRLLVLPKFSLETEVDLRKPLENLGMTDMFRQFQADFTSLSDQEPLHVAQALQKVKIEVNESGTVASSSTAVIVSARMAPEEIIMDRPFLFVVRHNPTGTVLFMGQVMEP
On to `COc1cc2sc(/C=C(/C(=O)O)c3ccncc3)c(Oc3cccnc3)c2cc1OCc1ccccc1` [Example 67], for which the IC50 is 5 µM.
As for `COc1ccc(Oc2c(/C=C(/C(=O)O)c3ccncc3)sc3cc(OCc4ccccc4)c(OCc4ccccc4)cc23)cc1`, the IC50 was found to be 13 µM.
With `O=C(O)/C(=C/c1sc2cc(OCc3ccccc3)c(OCc3ccccc3)cc2c1Oc1ccc(-c2ccncc2)cc1)c1ccncc1` [Example 66], the IC50 is 2.2 µM.
As to `O=C(O)/C(=C/c1sc2cc(OCc3ccccc3)c(OCc3ccccc3)cc2c1Oc1ccc(OCc2ccccc2)cc1)c1ccncc1`, the IC50 came out at 7 µM.

For the origin of these results see patent US6048875A, “Benzothiophene, benzofuran and indole compounds” (Adir et Compagnie, priority 1998, dated 2000).
